Patent publication US20080255192A1, “Methods and Compositions for Selectin Inhibition” (Wyeth, priority 2007, published 2008)

molecular target: T1, P-selectin/PSGL-1 interaction (Homo sapiens, UniProt P16109); assay: Biacore P-Selectin/PSGL-1 Inhibition Assay (surface plasmon resonance); assay type: binding; settings: 250 uM test compound, 500 nM P.LE, immobilized PSGL-1 19ek, 10% DMSO, pH 7.4
T1 construct: comprised of the lectin and epidermal growth factor-like (EGF) domains expressed in CHO cells; made in house; host or cells: CHO cells (P-LE)
T1 sequence (P16109 42-198): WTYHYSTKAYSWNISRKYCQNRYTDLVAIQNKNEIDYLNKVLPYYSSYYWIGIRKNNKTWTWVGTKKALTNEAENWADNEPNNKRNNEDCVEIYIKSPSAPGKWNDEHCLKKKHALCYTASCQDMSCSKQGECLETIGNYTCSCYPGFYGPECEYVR
Outline: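 Biotinylated monomeric human PSGL-1 "19ek" on streptavidin chip (600–700 RU); compounds preincubated 1 h, then mixed with 500 nM P-LE (lectin-EGF, CHO-expressed) at 250 or 500 μM compound, 10% DMSO, HEPES buffer with 1 mM CaCl2/MgCl2, pH 7.4. SPR at 25 °C; percent binding inhibition from double-referenced signals.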

| Compound | inhibition at 250 µM [%] |
| --- | --- |
| O=C(O)c1c(O)c(C2(c3ccccc3)CC2)nc2c(C(F)(F)F)cccc12 [Compound 34, 3-hydroxy-2-(1-phenylcyclopropyl)-8-(trifluoromethyl)quinoline-4-carboxylic acid] | 44 |
| CC(C)c1cccc2c(C(=O)O)c(O)c(C3(c4ccccc4)CC3)nc12 [Compound 44, 3-hydroxy-8-isopropyl-2-(1-phenylcyclopropyl)quinoline-4-carboxylic acid] | 63 |
| Cc1cc(C(F)(F)F)c2nc(C3(c4ccc(Cl)cc4)CC3)c(O)c(C(=O)O)c2c1 [Compound 94, 2-(1-(4-chlorophenyl)cyclopropyl)-3-hydroxy-6-methyl-8-(trifluoromethyl)quinoline-4-carboxylic acid] | 65 |
| O=C(O)c1c(O)c(C2(c3ccc(F)cc3)CC2)nc2ccc(Br)cc12 [Compound 72, 6-bromo-2-(1-(4-fluorophenyl)cyclopropyl)-3-hydroxyquinoline-4-carboxylic acid] | 12 |
| O=C(O)c1c(O)c(C2(c3ccc(Cl)cc3)CC2)nc2ccc(O)cc12 [Compound 23, 2-(1-(4-chlorophenyl)cyclopropyl)-3,6-dihydroxyquinoline-4-carboxylic acid] | ≤ 10 |
| O=C(O)c1c(O)c(C2(c3ccc(F)cc3)CC2)nc2c(Cl)cccc12 [Compound 73, 8-chloro-2-(1-(4-fluorophenyl)cyclopropyl)-3-hydroxyquinoline-4-carboxylic acid] | ≤ 10 |
| O=C(O)c1c(O)c(C2(c3ccccc3)CC2)nc2ccc(C(F)(F)F)cc12 [Compound 32, 3-hydroxy-2-(1-phenylcyclopropyl)-6-(trifluoromethyl)quinoline-4-carboxylic acid] | ≤ 10 |
| Cc1ccc2nc(C3(c4ccccc4)CC3)c(O)c(C(=O)O)c2c1 [Compound 33, 3-hydroxy-6-methyl-2-(1-phenylcyclopropyl)quinoline-4-carboxylic acid] | ≤ 10 |
| CCC(c1ccccc1)c1nc2c(C(F)(F)F)cccc2c(C(=O)O)c1O (stereo not shown) [Compound 126, 3-Hydroxy-2-(1-phenylpropyl)-8-(trifluoromethyl)quinoline-4-carboxylic acid] | 61 |
| O=C(O)c1c(O)c(C2(c3ccccc3)CC2)nc2c(C(F)(F)F)cc(-c3ccccc3)cc12 [Compound 102, 3-hydroxy-6-phenyl-2-(1-Phenylcyclopropyl)-8-(trifluoromethyl)quinoline-4-carboxylic acid] | ≤ 10 |
| Cc1cccc2c(C(=O)O)c(O)c(C3(c4ccc(Cl)cc4)CC3)nc12 [Compound 11, 2-(1-(4-chlorophenyl)cyclopropyl)-3-hydroxy-8-methylquinoline-4-carboxylic acid] | 43 |
| CC(C)c1cccc2c(C(=O)O)c(O)c(C(C)(C)c3ccc(Cl)cc3)nc12 [Compound 118, 2-(2-(4-Chlorophenyl)propan-2-yl)-3-hydroxy-8-isopropylquinoline-4-carboxylic acid] | ≤ 10 |
| O=C(O)c1c(O)c(C2(c3ccc(Cl)cc3)CC2)nc2c(-c3ccccc3)cc(C(F)(F)F)cc12 [Compound 100, 2-(1-(4-chlorophenyl)cyclopropyl)-3-hydroxy-8-phenyl-6-(trifluoromethyl)quinoline-4-carboxylic acid] | ≤ 10 |
| O=C(O)c1c(O)c(C2(c3ccc(Br)cc3)CC2)nc2c(C(F)(F)F)cccc12 [Compound 53, 2-(1-(4-bromophenyl)cyclopropyl)-3-hydroxy-8-(trifluoromethyl)quinoline-4-carboxylic acid] | 64 |
| O=C(O)c1c(O)c(C2(c3ccc(Cl)cc3)CC2)nc2c(F)cccc12 [Compound 7, 2-(1-(4-chlorophenyl)cyclopropyl)-8-fluoro-3-hydroxyquinoline-4-carboxylic acid] | ≤ 10 |
| Cc1cc(C)c2nc(C3(c4ccccc4)CC3)c(O)c(C(=O)O)c2c1 [Compound 64, 3-hydroxy-6,8-dimethyl-2-(1-phenylcyclopropyl)quinoline-4-carboxylic acid] | 20 |
| Cc1cc(C)c2nc(C3(c4ccc(Cl)cc4)CC3)c(O)c(C(=O)O)c2c1 [Compound 10, 2-(1-(4-chlorophenyl)cyclopropyl)-3-hydroxy-6,8-dimethylquinoline-4-carboxylic acid] | 47 |
| O=C(O)c1c(O)c(C2(c3ccc(OC(F)(F)F)cc3)CC2)nc2c(C(F)(F)F)cccc12 [Compound 56] | 29 |
| O=C(O)c1c(O)c(C2(c3ccc(F)cc3)CC2)nc2ccc(Cl)cc12 [Compound 67, 6-chloro-2-(1-(4-fluorophenyl)cyclopropyl)-3-hydroxyquinoline-4-carboxylic acid] | ≤ 10 |
| O=C(O)c1c(O)c(C2(c3ccc(F)cc3)CC2)nc2cc(Br)ccc12 [Compound 74, 7-bromo-2-(1-(4-fluorophenyl)cyclopropyl)-3-hydroxyquinoline-4-carboxylic acid] | 10 |
| O=C(O)c1c(O)c(C2(c3ccccc3)CC2)nc2c(C(O)(C(F)(F)F)C(F)(F)F)cccc12 [Compound 49, 8-(1,1,1,3,3,3-hexafluoro-2-hydroxypropan-2-yl)-3-hydroxy-2-(1-phenylcyclopropyl)quinoline-4-carboxylic acid] | 58 |
| O=C(O)c1c(O)c(C2(c3ccsc3)CC2)nc2c(C(F)(F)F)cccc12 [Compound 59, 3-hydroxy-2-(1-(thiophen-3-yl)cyclopropyl)-8-(trifluoromethyl)quinoline-4-carboxylic acid] | ≤ 10 |
| O=C(O)c1c(O)c(C2(c3ccccc3)CC2)nc2ccc(Cl)cc12 [Compound 30, 6-chloro-3-hydroxy-2-(1-phenylcyclopropyl)quinoline-4-carboxylic acid] | ≤ 10 |
| CCc1cc(C(F)(F)F)c2nc(C3(c4ccccc4)CC3)c(O)c(C(=O)O)c2c1 [Compound 104, 6-ethyl-3-hydroxy-2-(1-phenylcyclopropyl)-8-(trifluoromethyl)quinoline-4-carboxylic acid] | 40 |
| O=C(O)c1c(O)c(C2(c3ccccc3)CC2)nc2c(OC(F)(F)F)cccc12 [Compound 46, 3-hydroxy-2-(1-phenylcyclopropyl)-8-(trifluoromethoxy)quinoline-4-carboxylic acid] | ≤ 10 |
| O=C(O)c1c(O)c(C2(c3cccc(C(F)(F)F)c3)CC2)nc2c(C(F)(F)F)cccc12 [Compound 57, 3-hydroxy-8-(trifluoromethyl)-2-(1-(3-(trifluoromethyl)phenyl)cyclopropyl)quinoline-4-carboxylic acid] | 42 |
| O=C(O)c1c(O)c(C2(c3ccc(Cl)cc3)CC2)nc2c(C(O)(C(F)(F)F)C(F)(F)F)cccc12 [Compound 41, 2-(1-(4-chlorophenyl)cyclopropyl)-8-(1,1,1,3,3,3-hexafluoro-2-hydroxypropan-2-yl)-3-hydroxyquinoline-4-carboxylic acid] | ≤ 10 |
| O=C(O)c1c(O)c(C2(c3ccccc3)CC2)nc2ccc(C(O)(C(F)(F)F)C(F)(F)F)cc12 [Compound 48, 6-(1,1,1,3,3,3-hexafluoro-2-hydroxypropan-2-yl)-3-hydroxy-2-(1-phenylcyclopropyl)quinoline-4-carboxylic acid] | ≤ 10 |
